Measured values taken from the NIST ThermoML archive (doi:10.1021/je100897y).
Values joined by “and” are separate entries in the source; they are usually repeats but may differ in a detail not shown here. Equal entries are not always repeated.

How the values were obtained:
[1] = 298.15 K; 101.33 kPa; Liquid
[2] = excess molar enthalpy (molar enthalpy of mixing); xn = mol fraction of the nth substance listed; details: 298.15 K, 101 kPa, Liquid, Flow calorimetry

CCCOCCC [dipropyl ether]
Details	mass density [kg/m3]
[1]	741.997

CCCOCCC [dipropyl ether] + C1CCOC1
[2]
Details	excess molar enthalpy
x1 = 0.05	0.0125 kcal/mol
x1 = 0.1	0.0232 kcal/mol
x1 = 0.1501	0.0325 kcal/mol
x1 = 0.2	0.0402 kcal/mol
x1 = 0.2498	0.0468 kcal/mol
x1 = 0.2998	0.0518 kcal/mol
x1 = 0.3503	0.0556 kcal/mol
x1 = 0.3998	0.058 kcal/mol
x1 = 0.45	0.0591 kcal/mol
x1 = 0.4998	0.0594 kcal/mol and 0.0593 kcal/mol
x1 = 0.5499	0.0585 kcal/mol
x1 = 0.5999	0.0565 kcal/mol
x1 = 0.6502	0.0535 kcal/mol
x1 = 0.7003	0.0493 kcal/mol
x1 = 0.7499	0.0441 kcal/mol
x1 = 0.7999	0.0381 kcal/mol
x1 = 0.85	0.0305 kcal/mol
x1 = 0.9	0.0216 kcal/mol
x1 = 0.95	0.0115 kcal/mol

CCCOCCC [dipropyl ether] + C=CCCCC
[2]
Details	excess molar enthalpy [kcal/mol]
x1 = 0.0529	0.00158
x1 = 0.1001	0.00289
x1 = 0.15	0.00394
x1 = 0.2001	0.0048
x1 = 0.25	0.00545
x1 = 0.3002	0.00595
x1 = 0.3499	0.00632
x1 = 0.4001	0.00654
x1 = 0.4501	0.00671
x1 = 0.5001	0.00669
x1 = 0.55	0.00661
x1 = 0.5998	0.00641
x1 = 0.6499	0.00609
x1 = 0.6996	0.0057
x1 = 0.75	0.00515
x1 = 0.8003	0.0045
x1 = 0.85	0.00368
x1 = 0.9	0.00271
x1 = 0.95	0.00146

CCCOCCC [dipropyl ether] + CCCCOCCCC
[2]
Details	excess molar enthalpy [kcal/mol]
x1 = 0.05	0.000533
x1 = 0.1	0.00102
x1 = 0.15	0.0014
x1 = 0.2001	0.00175
x1 = 0.25	0.00205
x1 = 0.3	0.00229
x1 = 0.35	0.00246
x1 = 0.3998	0.00261
x1 = 0.4497	0.00275
x1 = 0.4998	0.00283
x1 = 0.5004	0.00283
x1 = 0.55	0.00284
x1 = 0.6001	0.00281
x1 = 0.65	0.00271
x1 = 0.6999	0.00253
x1 = 0.75	0.00228
x1 = 0.8	0.00196
x1 = 0.8503	0.00159
x1 = 0.9	0.00111
x1 = 0.95	0.000612

C=CCCCC [hex-1-ene]
Details	mass density [kg/m3]
[1]	668.762

C1CCOC1 [tetrahydrofuran]
Details	mass density [kg/m3]
[1]	882.078
